The test addresses T1, TRPV3 in KU-19-19 cells (Homo sapiens, UniProt Q8NET8).
T1 construct: host or cells: KU-19-19
T1 sequence (Q8NET8 1-790): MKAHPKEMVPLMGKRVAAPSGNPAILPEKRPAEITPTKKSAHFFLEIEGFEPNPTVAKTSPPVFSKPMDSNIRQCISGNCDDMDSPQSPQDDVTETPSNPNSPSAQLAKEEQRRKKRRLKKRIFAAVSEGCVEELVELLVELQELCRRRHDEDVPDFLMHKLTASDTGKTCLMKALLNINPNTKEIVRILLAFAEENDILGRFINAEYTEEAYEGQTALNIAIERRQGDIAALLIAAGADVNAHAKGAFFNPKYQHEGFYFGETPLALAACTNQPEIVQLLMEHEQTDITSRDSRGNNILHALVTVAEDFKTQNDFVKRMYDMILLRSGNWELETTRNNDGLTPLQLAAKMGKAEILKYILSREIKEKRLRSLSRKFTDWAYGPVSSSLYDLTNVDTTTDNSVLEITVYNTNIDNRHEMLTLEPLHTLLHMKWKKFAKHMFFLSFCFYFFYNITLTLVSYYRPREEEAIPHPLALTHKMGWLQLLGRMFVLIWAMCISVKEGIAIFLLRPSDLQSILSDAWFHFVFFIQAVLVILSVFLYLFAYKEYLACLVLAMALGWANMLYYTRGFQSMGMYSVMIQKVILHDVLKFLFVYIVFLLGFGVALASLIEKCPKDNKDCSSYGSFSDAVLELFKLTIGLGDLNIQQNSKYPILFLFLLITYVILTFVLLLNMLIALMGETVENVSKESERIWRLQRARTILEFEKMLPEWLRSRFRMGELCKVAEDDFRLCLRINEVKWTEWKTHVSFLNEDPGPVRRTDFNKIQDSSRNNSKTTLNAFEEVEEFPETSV
The experiment in a line: whole-cell patch-clamp recordings in KU-19-19 cells. The test is classed as cell-based. As for the experimental part: Supplementation of the cellular cholesterol content in KU-19-19 cells was performed by adding cholesterol-loaded methyl-β-cyclodextrin (MβCD) to the cells. Cholesterol was dissolved in ethanol (20 mg/mL) by heating at 65 °C for 15 minutes. The cholesterol solution was then added dropwise to a 250 mM MβCD solution prepared in phosphate-buffered solution (PBS; Sigma Aldrich) at a 1:4 (v/v) ratio, yielding a stock containing 200 mM MβCD-cholesterol. KU-19-19 cells were incubated for 15 minutes at 37 °C in HBS containing 2.5 mM MβCD-cholesterol. As a control, KU-19-19 cells were incubated in HBS without MβCD-cholesterol supplement under the same conditions. […]
Fig. 3 TRPV3 is functionally expressed in bladder cancer cells. (A–D) Activation of TRPV3 in KU-19-19 (A, B) and CAL-29 (C, D) bladder cancer cells by AV3-1, assessed by fura-2-based Ca^2+ assays. […] (B, D) Quantification of peak [Ca^2+]ᵢ responses from KU-19-19 (B) and CAL-29 (D) cells under the indicated treatment conditions. Statistical significance was determined using one-way ANOVA with Tukey post hoc analysis; ∗P < .05. […] Current amplitudes were recorded using voltage ramps from −100 mV to +100 mV (500-millisecond duration) such as in F and expressed as current density (pA/pF) measured at +100 mV and −100 mV. […] Statistical significance was determined using Kruskal-Wallis ANOVA followed by Conover test; ∗P < .05. […]
On the technique in general: The patch-clamp technique gives a direct electrical read-out from membranes.

In the case of `COC(=O)C12CN(Cc3ccccc3)CC1(C(=O)OC)CN(Cc1ccccc1)C2` (centres unmarked) [AV3-1], the “currents under cholesterol-loaded conditions compared with untreated cells” value (50 μM AV3-1, KU-19-19 cells preincubated with 2.5 mM MβCD-cholesterol) was “substantially larger currents”. The “TRPV3 currents in KU-19-19 cells” value (50 μM AV3-1, repeated applications) was “robustly and reproducibly activated TRPV3 currents”.

(Values after paper PMC12881674, “Activation of TRPV3 channels in bladder cancer cells stimulates ATP release” (Molecular Pharmacology, 2025).)
